Laboratory results: PubChem BioAssay AID2060486 (Molecular Pharmacology Branch, DTP, NCI, 2025)

Test system: IGROV1 complex spheroids (HUVEC, MSC), viability % test/control
Experiment: Anticancer human tumor IGROV1 cell line growth inhibition [GQUAD];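 further: spheroids exposed to compounds for 7 days before readout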;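 on viability, T/C: 100% = DMSO vehicle control viability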
Settings: for IC50: curve of first compound; for viability, T/C: stronger effect = lower value
Outline: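 Multi-cell-type spheroids of tumor cells with HUVEC and mesenchymal stem cells, treated with drug combinations. Concentrations descend in half-log steps from near clinical Cmax, or from 10 microM where Cmax is unknown; viability read-out.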

[1] = second compound 0.0316 µM, first compound 0.0316 µM
[2] = second compound 0.0316 µM, first compound 0.1 µM
[3] = second compound 0.0316 µM, first compound 0.316 µM
[4] = second compound 0.0316 µM, first compound 1 µM
[5] = second compound 0.0316 µM, first compound 3.16 µM
[6] = second compound 0.0316 µM, first compound 10 µM
[7] = second compound 0.1 µM, first compound 0.0316 µM
[8] = second compound 0.1 µM, first compound 0.1 µM
[9] = second compound 0.1 µM, first compound 0.316 µM
[10] = second compound 0.1 µM, first compound 1 µM
[11] = second compound 0.1 µM, first compound 3.16 µM
[12] = second compound 0.1 µM, first compound 10 µM
[13] = second compound 0.316 µM, first compound 0.0316 µM
[14] = second compound 0.316 µM, first compound 0.1 µM
[15] = second compound 0.316 µM, first compound 0.316 µM
[16] = second compound 0.316 µM, first compound 1 µM
[17] = second compound 0.316 µM, first compound 3.16 µM
[18] = second compound 0.316 µM, first compound 10 µM
[19] = second compound 1 µM, first compound 0.0316 µM
[20] = second compound 1 µM, first compound 0.1 µM
[21] = second compound 1 µM, first compound 0.316 µM
[22] = second compound 1 µM, first compound 1 µM
[23] = second compound 1 µM, first compound 3.16 µM
[24] = second compound 1 µM, first compound 10 µM
[25] = second compound 3.16 µM, first compound 0.0316 µM
[26] = second compound 3.16 µM, first compound 0.1 µM
[27] = second compound 3.16 µM, first compound 0.316 µM
[28] = second compound 3.16 µM, first compound 1 µM
[29] = second compound 3.16 µM, first compound 3.16 µM
[30] = second compound 3.16 µM, first compound 10 µM
[31] = second compound 10 µM, first compound 0.0316 µM
[32] = second compound 10 µM, first compound 0.1 µM
[33] = second compound 10 µM, first compound 0.316 µM
[34] = second compound 10 µM, first compound 1 µM
[35] = second compound 10 µM, first compound 3.16 µM
[36] = second compound 10 µM, first compound 10 µM

CC(=O)O[C@H]1C(=O)[C@@]2(C)[C@H]([C@H](OC(=O)c3ccccc3)[C@]3(O)C[C@H](OC(=O)[C@H](O)[C@@H](NC(=O)c4ccccc4)c4ccccc4)C(C)=C1C3(C)C)[C@]1(OC(C)=O)CO[C@@H]1C[C@@H]2O + Cc1cnc(CNC(=O)c2c(=O)c3ccc(N4CCCN(C)CC4)nc3n3c2sc2ccccc23)cn1
IC50 (second compound 0.0316 µM): < 31.6 nM | IC50 (second compound 0.1 µM): < 31.6 nM | IC50 (second compound 0.316 µM): < 31.6 nM | IC50 (second compound 1 µM): < 31.6 nM | IC50 (second compound 3.16 µM): < 31.6 nM | IC50 (second compound 10 µM): < 31.6 nM | viability, T/C [1]: 6.85% | viability, T/C [2]: 7.2% | viability, T/C [3]: 5.93% | viability, T/C [4]: 4.84% | viability, T/C [5]: 5.81% | viability, T/C [6]: 5% | viability, T/C [7]: 8.41% | viability, T/C [8]: 6.77% | viability, T/C [9]: 4.59% | viability, T/C [10]: 5.47% | viability, T/C [11]: 5.23% | viability, T/C [12]: 5.1% | viability, T/C [13]: 7.94% | viability, T/C [14]: 7.36% | viability, T/C [15]: 5.21% | viability, T/C [16]: 5.4% | viability, T/C [17]: 5.37% | viability, T/C [18]: 5.62% | viability, T/C [19]: 8.3% | viability, T/C [20]: 8.57% | viability, T/C [21]: 6.36% | viability, T/C [22]: 6.43% | viability, T/C [23]: 6.28% | viability, T/C [24]: 5.79% | viability, T/C [25]: 7.17% | viability, T/C [26]: 6.44% | viability, T/C [27]: 7.03% | viability, T/C [28]: 6.22% | viability, T/C [29]: 6.75% | viability, T/C [30]: 5.4% | viability, T/C [31]: 5.82% | viability, T/C [32]: 6.66% | viability, T/C [33]: 6.12% | viability, T/C [34]: 6.29% | viability, T/C [35]: 6.72% | viability, T/C [36]: 6.2%

COc1cc(C2c3cc4c(cc3C(OC3OC5COC(C)OC5C(O)C3O)C3COC(=O)C23)OCO4)cc(OC)c1O (stereo not given) + Cc1cnc(CNC(=O)c2c(=O)c3ccc(N4CCCN(C)CC4)nc3n3c2sc2ccccc23)cn1
IC50 (second compound 0.0316 µM): 56.4 nM | IC50 (second compound 0.1 µM): < 31.6 nM | IC50 (second compound 0.316 µM): < 31.6 nM | IC50 (second compound 1 µM): < 31.6 nM | IC50 (second compound 3.16 µM): < 31.6 nM | IC50 (second compound 10 µM): < 31.6 nM | viability, T/C [1]: 67.3% | viability, T/C [2]: 32.8% | viability, T/C [3]: 16.3% | viability, T/C [4]: 13.5% | viability, T/C [5]: 8.96% | viability, T/C [6]: 4.09% | viability, T/C [7]: 37.6% | viability, T/C [8]: 27.9% | viability, T/C [9]: 16% | viability, T/C [10]: 10.6% | viability, T/C [11]: 8.64% | viability, T/C [12]: 5.71% | viability, T/C [13]: 25.1% | viability, T/C [14]: 19% | viability, T/C [15]: 14.4% | viability, T/C [16]: 8.91% | viability, T/C [17]: 8.97% | viability, T/C [18]: 5.79% | viability, T/C [19]: 12.8% | viability, T/C [20]: 13.7% | viability, T/C [21]: 13.6% | viability, T/C [22]: 11% | viability, T/C [23]: 7.71% | viability, T/C [24]: 6.49% | viability, T/C [25]: 9.53% | viability, T/C [26]: 11.8% | viability, T/C [27]: 9.99% | viability, T/C [28]: 9.79% | viability, T/C [29]: 9.02% | viability, T/C [30]: 5.67% | viability, T/C [31]: 9.66% | viability, T/C [32]: 11% | viability, T/C [33]: 10.7% | viability, T/C [34]: 9.61% | viability, T/C [35]: 9.67% | viability, T/C [36]: 6.31%

COc1cccc2c1C(=O)c1c(O)c3c(c(O)c1C2=O)CC(O)(C(=O)CO)CC3OC1CC(N)C(O)C(C)O1 (stereo not given) + Cc1cnc(CNC(=O)c2c(=O)c3ccc(N4CCCN(C)CC4)nc3n3c2sc2ccccc23)cn1
IC50 (second compound 0.0316 µM): < 31.6 nM | IC50 (second compound 0.1 µM): < 31.6 nM | IC50 (second compound 0.316 µM): < 31.6 nM | IC50 (second compound 1 µM): < 31.6 nM | IC50 (second compound 3.16 µM): < 31.6 nM | IC50 (second compound 10 µM): < 31.6 nM | viability, T/C [1]: 40.4% | viability, T/C [2]: 21.2% | viability, T/C [3]: 7.47% | viability, T/C [4]: 4.08% | viability, T/C [5]: 0.07% | viability, T/C [6]: 0.9% | viability, T/C [7]: 29.5% | viability, T/C [8]: 15.3% | viability, T/C [9]: 9.07% | viability, T/C [10]: 3.71% | viability, T/C [11]: 0.05% | viability, T/C [12]: 0.74% | viability, T/C [13]: 18.7% | viability, T/C [14]: 14.9% | viability, T/C [15]: 7.44% | viability, T/C [16]: 3.57% | viability, T/C [17]: 0.07% | viability, T/C [18]: 0.73% | viability, T/C [19]: 11.8% | viability, T/C [20]: 9.55% | viability, T/C [21]: 7.95% | viability, T/C [22]: 3.7% | viability, T/C [23]: 0.05% | viability, T/C [24]: 0.66% | viability, T/C [25]: 10.9% | viability, T/C [26]: 9.14% | viability, T/C [27]: 6.91% | viability, T/C [28]: 2.27% | viability, T/C [29]: 0.07% | viability, T/C [30]: 0.41% | viability, T/C [31]: 11.1% | viability, T/C [32]: 8.57% | viability, T/C [33]: 5.52% | viability, T/C [34]: 1.8% | viability, T/C [35]: 0.14% | viability, T/C [36]: 0.45%

Nc1ccn(C2OC(CO)C(O)C2(F)F)c(=O)n1 (stereo not given) + Cc1cnc(CNC(=O)c2c(=O)c3ccc(N4CCCN(C)CC4)nc3n3c2sc2ccccc23)cn1
IC50 (second compound 0.0316 µM): < 31.6 nM | IC50 (second compound 0.1 µM): < 31.6 nM | IC50 (second compound 0.316 µM): < 31.6 nM | IC50 (second compound 1 µM): < 31.6 nM | IC50 (second compound 3.16 µM): < 31.6 nM | IC50 (second compound 10 µM): < 31.6 nM | viability, T/C [1]: 10.5% | viability, T/C [2]: 5.6% | viability, T/C [3]: 5.15% | viability, T/C [4]: 4.7% | viability, T/C [5]: 4.99% | viability, T/C [6]: 4.44% | viability, T/C [7]: 12.7% | viability, T/C [8]: 4.99% | viability, T/C [9]: 8.19% | viability, T/C [10]: 6.35% | viability, T/C [11]: 5.18% | viability, T/C [12]: 3.96% | viability, T/C [13]: 11.5% | viability, T/C [14]: 5.16% | viability, T/C [15]: 5.92% | viability, T/C [16]: 5.56% | viability, T/C [17]: 4.85% | viability, T/C [18]: 4.62% | viability, T/C [19]: 11.1% | viability, T/C [20]: 7% | viability, T/C [21]: 6.75% | viability, T/C [22]: 6.61% | viability, T/C [23]: 4.42% | viability, T/C [24]: 4.28% | viability, T/C [25]: 6.61% | viability, T/C [26]: 7.28% | viability, T/C [27]: 6.54% | viability, T/C [28]: 5.77% | viability, T/C [29]: 5.25% | viability, T/C [30]: 3.96% | viability, T/C [31]: 9.97% | viability, T/C [32]: 6.38% | viability, T/C [33]: 5.25% | viability, T/C [34]: 7.22% | viability, T/C [35]: 5.43% | viability, T/C [36]: 3.66%

O=c1[nH]cc(F)c(=O)[nH]1 + Cc1cnc(CNC(=O)c2c(=O)c3ccc(N4CCCN(C)CC4)nc3n3c2sc2ccccc23)cn1
IC50 (second compound 0.0316 µM): 4520 nM | IC50 (second compound 0.1 µM): < 31.6 nM | IC50 (second compound 0.316 µM): < 31.6 nM | IC50 (second compound 1 µM): < 31.6 nM | IC50 (second compound 3.16 µM): < 31.6 nM | IC50 (second compound 10 µM): < 31.6 nM | viability, T/C [1]: 69.8% | viability, T/C [2]: 66.3% | viability, T/C [3]: 51.5% | viability, T/C [4]: 66.9% | viability, T/C [5]: 63.7% | viability, T/C [6]: 20.2% | viability, T/C [7]: 39.9% | viability, T/C [8]: 38.9% | viability, T/C [9]: 41.9% | viability, T/C [10]: 36.1% | viability, T/C [11]: 35.7% | viability, T/C [12]: 17.7% | viability, T/C [13]: 27.9% | viability, T/C [14]: 23.6% | viability, T/C [15]: 29.5% | viability, T/C [16]: 25.2% | viability, T/C [17]: 25.8% | viability, T/C [18]: 15.1% | viability, T/C [19]: 15.6% | viability, T/C [20]: 15.3% | viability, T/C [21]: 17.3% | viability, T/C [22]: 19% | viability, T/C [23]: 20.4% | viability, T/C [24]: 9.16% | viability, T/C [25]: 11.3% | viability, T/C [26]: 15.5% | viability, T/C [27]: 14.1% | viability, T/C [28]: 9.51% | viability, T/C [29]: 12.9% | viability, T/C [30]: 7.27% | viability, T/C [31]: 11.2% | viability, T/C [32]: 8.66% | viability, T/C [33]: 10.8% | viability, T/C [34]: 9.81% | viability, T/C [35]: 9.32% | viability, T/C [36]: 5.96%
